According to patent US8906925B2, “Pyrido[4,3-B]indoles containing rigid moieties” (Medivation Technologies, Inc., priority 2008, dated 2014):

Columns and labels:
histamine receptor H1 = histamine receptor H1 (Homo sapiens, UniProt P35367); experiment: Histamine H1 radioligand binding ([3H]Pyrilamine); conditions: read-out: Histamine Binding (1 μM) H1, percent inhibition of specific binding, 1 μM
Outline: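 Values are percent inhibition of specific [3H]pyrilamine (1.2 nM) binding with compounds at ≤1 μM (1% DMSO vehicle); 180 min incubation at 25 °C, pH 7.4 Tris buffer, on CHO-expressed human H1 receptor; 1 μM pyrilamine defined nonspecific binding, bound ligand counted after filtration.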

[1] = target: human dopamine D2L receptor (Homo sapiens, UniProt P14416); experiment: Dopamine D2L radioligand binding ([3H]Spiperone); conditions: compound at 1 μM; […] [3H]Spiperone; read-out: Inhibition of ligand binding, Dopamine D2L (percent inhibition of specific binding)
Sequence of human dopamine D2L receptor (P14416 whole entry): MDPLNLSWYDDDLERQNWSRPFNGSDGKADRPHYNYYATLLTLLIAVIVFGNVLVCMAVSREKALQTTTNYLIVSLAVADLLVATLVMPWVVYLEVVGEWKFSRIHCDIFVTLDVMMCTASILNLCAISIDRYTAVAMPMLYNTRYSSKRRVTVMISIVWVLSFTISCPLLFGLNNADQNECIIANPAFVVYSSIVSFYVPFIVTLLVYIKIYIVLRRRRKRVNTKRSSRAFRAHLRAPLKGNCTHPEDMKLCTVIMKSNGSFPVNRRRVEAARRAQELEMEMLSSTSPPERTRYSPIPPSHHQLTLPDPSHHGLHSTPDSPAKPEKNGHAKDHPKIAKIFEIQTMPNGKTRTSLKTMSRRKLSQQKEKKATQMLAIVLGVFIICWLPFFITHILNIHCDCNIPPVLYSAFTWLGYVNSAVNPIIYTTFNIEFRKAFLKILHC
Excerpt: Non-specific binding was estimated in the presence of […] Haloperidol. Receptor proteins were filtered and washed, the filters were then counted to determine [^3H]Spiperone specifically bound. […] Biochemical assay results are presented as the percent inhibition of specific binding in Table 9.

Sequence of histamine receptor H1 (P35367 whole entry): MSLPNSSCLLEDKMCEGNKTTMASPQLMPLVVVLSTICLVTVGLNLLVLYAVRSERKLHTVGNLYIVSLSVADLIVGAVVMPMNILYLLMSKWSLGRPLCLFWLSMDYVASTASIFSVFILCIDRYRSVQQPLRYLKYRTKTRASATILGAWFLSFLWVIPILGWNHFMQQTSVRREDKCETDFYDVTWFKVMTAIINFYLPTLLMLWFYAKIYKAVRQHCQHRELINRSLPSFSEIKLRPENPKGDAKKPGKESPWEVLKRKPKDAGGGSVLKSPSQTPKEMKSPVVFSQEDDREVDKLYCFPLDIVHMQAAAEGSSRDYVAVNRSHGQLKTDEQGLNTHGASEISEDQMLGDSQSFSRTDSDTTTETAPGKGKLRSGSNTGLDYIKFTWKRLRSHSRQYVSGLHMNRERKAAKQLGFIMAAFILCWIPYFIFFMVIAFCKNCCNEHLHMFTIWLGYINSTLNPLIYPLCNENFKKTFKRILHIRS

SMILES | inhibition at 1 µM (histamine receptor H1) [%] | inhibition at 1 µM [1] [%]
C/C(=C\n1c2c(c3cc(Cl)ccc31)CN(CCCC(O)c1ccc(F)cc1)CC2)c1ccncc1 (centres unmarked) [compound 395, (E)-4-(8-chloro-5-(2-(pyridin-4-yl)prop-1-enyl)-3,4-dihydro-1H-pyrido[4,3-b]indol-2(5H)-yl)-1-(4-fluorophenyl)butan-1-ol] | 102 | 99
C/C(=C\n1c2c(c3cc(Cl)ccc31)CN(C(=O)OCc1ccccc1)CC2)c1ccncc1 [compound 396, (E)-benzyl 8-chloro-5-(2-(pyridin-4-yl)prop-1-enyl)-3,4-dihydro-1H-pyrido[4,3-b]indole-2(5H)-carboxylate] | 15 | 7
C/C(=C/n1c2c(c3cc(Cl)ccc31)CN(C)CC2)c1ccc(F)cc1 [compound 397, (Z)-8-chloro-5-(2-(4-fluorophenyl)prop-1-enyl)-2-methyl-2,3,4,5-tetrahydro-1H-pyrido[4,3-b]indole] | 89 | 80
C/C(=C\n1c2c(c3cc(Cl)ccc31)CN(CCCC1(c3ccc(F)cc3)OCCO1)CC2)c1ccncc1 [compound 398, (E)-8-chloro-2-(3-(2-(4-fluorophenyl)-1,3-dioxolan-2-yl)propyl)-5-(2-(pyridin-4-yl)prop-1-enyl)-2,3,4,5-tetrahydro-1H-pyrido[4,3-b]indole] | 95 | 97
C/C(=C\n1c2c(c3cc(C)ccc31)CN(C)CC2)c1cc(C)nc(C)c1 [compound 399, (E)-5-(2-(2,6-dimethylpyridin-4-yl)prop-1-enyl)-2,8-dimethyl-2,3,4,5-tetrahydro-1H-pyrido[4,3-b]indole] | 13 | 73
COCCCN1CCc2c(c3cc(C)ccc3n2/C=C(\C)c2ccncc2)C1 [compound 400, (E)-2-(3-methoxypropyl)-8-methyl-5-(2-(pyridin-4-yl)prop-1-enyl)-2,3,4,5-tetrahydro-1H-pyrido[4,3-b]indole] | 22 | 94
C/C(=C\n1c2c(c3cc(C)ccc31)CNCC2)c1ccncc1 [compound 401, (E)-8-methyl-5-(2-(pyridin-4-yl)prop-1-enyl)-2,3,4,5-tetrahydro-1H-pyrido[4,3-b]indole] | 8 | 57
C/C(=C\n1c2c(c3cc(Cl)ccc31)CNCC2)c1ccncc1 [compound 402, (E)-8-chloro-5-(2-(pyridin-4-yl)prop-1-enyl)-2,3,4,5-tetrahydro-1H-pyrido[4,3-b]indole] | 15 | 87
C/C(=C(/C)n1c2c(c3cc(C)ccc31)CN(C)CC2)c1ccncc1 [compound 403, (E)-2,8-dimethyl-5-(3-(pyridin-4-yl)but-2-en-2-yl)-2,3,4,5-tetrahydro-1H-pyrido[4,3-b]indole] | 37 | 66
C=CCN1CCc2c(c3cc(C)ccc3n2/C=C(\C)c2ccncc2)C1 [compound 405, (E)-2-allyl-8-methyl-5-(2-(pyridin-4-yl)prop-1-enyl)-2,3,4,5-tetrahydro-1H-pyrido[4,3-b]indole] | 67 | 88
C=CCN1CCc2c(c3cc(Cl)ccc3n2/C=C(\C)c2ccncc2)C1 [compound 406, (E)-2-allyl-8-chloro-5-(2-(pyridin-4-yl)prop-1-enyl)-2,3,4,5-tetrahydro-1H-pyrido[4,3-b]indole] | 74 | 96
CN1CCc2c(c3cc(Cl)ccc3n2C=C(c2ccccc2)c2ccccc2)C1 [compound 407, 8-chloro-5-(2,2-diphenylvinyl)-2-methyl-2,3,4,5-tetrahydro-1H-pyrido[4,3-b]indole] | 10 | 74
C/C=C(/c1ccccc1)n1c2c(c3cc(C)ccc31)CN(C)CC2 [compound 408, (Z)-2,8-dimethyl-5-(1-phenylprop-1-enyl)-2,3,4,5-tetrahydro-1H-pyrido[4,3-b]indole] | 98 | 44
Cc1ccc2c(c1)c1c(n2C=C(c2ccccc2)c2ccccc2)CCN(C)C1 [compound 409, 5-(2,2-diphenylvinyl)-2,8-dimethyl-2,3,4,5-tetrahydro-1H-pyrido[4,3-b]indole] | 18 | 54
C/C(=C\n1c2c(c3cc(C)ccc31)CN(C=O)CC2)c1ccncc1 [compound 411, (E)-8-methyl-5-(2-(pyridin-4-yl)prop-1-enyl)-3,4-dihydro-1H-pyrido[4,3-b]indole-2(5H)-carbaldehyde] | 0 | 55
C/C(=C\n1c2c(c3cc(C)ccc31)CN(CCc1ccccc1)CC2)c1ccncc1 [compound 412, (E)-8-methyl-2-phenethyl-5-(2-(pyridin-4-yl)prop-1-enyl)-2,3,4,5-tetrahydro-1H-pyrido[4,3-b]indole] | 27 | 94

SMILES | inhibition at 1 µM (histamine receptor H1) [%] | inhibition at 1 µM [1] [%]
CO/C(=C\n1c2c(c3cc(C)ccc31)CN(C)CC2)c1ccncc1 [compound 413, (Z)-5-(2-methoxy-2-(pyridin-4-yl)vinyl)-2,8-dimethyl-2,3,4,5-tetrahydro-1H-pyrido[4,3-b]indole] | 16 | 60
C/C(=C\n1c2c(c3cc(Cl)ccc31)CN(CCC(C)(C)O)CC2)c1ccc(F)cc1 [compound 414, (E)-4-(8-chloro-5-(2-(4-fluorophenyl)prop-1-enyl)-3,4-dihydro-1H-pyrido[4,3-b]indol-2(5H)-yl)-2-methylbutan-2-ol] | 61 | 100
CN1CCc2c(c3cc(Cl)ccc3n2/C=C/c2ccccc2)C1 [compound 415, (E)-8-chloro-2-methyl-5-styryl-2,3,4,5-tetrahydro-1H-pyrido[4,3-b]indole] | 97 | 95
Cc1ccc2c(c1)c1c(n2/C=C(\F)c2ccc(Br)nc2)CCN(C)C1 [compound 416, (Z)-5-(2-(6-bromopyridin-3-yl)-2-fluorovinyl)-2,8-dimethyl-2,3,4,5-tetrahydro-1H-pyrido[4,3-b]indole] | 91 | 20
C/C(=C/n1c2c(c3cc(Cl)ccc31)CN(C)CC2)c1ccncc1C [compound 417, (Z)-8-chloro-2-methyl-5-(2-(3-methylpyridin-4-yl)prop-1-enyl)-2,3,4,5-tetrahydro-1H-pyrido[4,3-b]indole] | 48 | 87
CO/C(=C(/C)n1c2c(c3cc(C)ccc31)CN(C)CC2)c1ccncc1 [compound 418, (Z)-5-(1-methoxy-1-(pyridin-4-yl)prop-1-en-2-yl)-2,8-dimethyl-2,3,4,5-tetrahydro-1H-pyrido[4,3-b]indole] | 33 | 14
Cc1ccc2c(c1)c1c(n2/C(=C(/F)c2ccc(C)nc2)c2ccc(C)nc2)CCN(C)C1 [compound 419] | 52 | 20
COc1ccc(/C(F)=C(/c2ccc(OC)nc2)n2c3c(c4cc(C)ccc42)CN(C)CC3)cn1 [compound 420, (E)-5-(2-fluoro-1,2-bis(6-methoxypyridin-3-yl)vinyl)-2,8-dimethyl-2,3,4,5-tetrahydro-1H-pyrido[4,3-b]indole] | 13 | 29
C/C(=C(/C)n1c2c(c3cc(C)ccc31)CN(C)CC2)c1ccc(F)cc1 [compound 421, (E)-5-(3-(4-fluorophenyl)but-2-en-2-yl)-2,8-dimethyl-2,3,4,5-tetrahydro-1H-pyrido[4,3-b]indole] | 93 | 79
C/C(=C\n1c2c(c3cc(C)ccc31)CN(CCF)CC2)c1ccncc1 [compound 422, (E)-2-(2-fluoroethyl)-8-methyl-5-(2-(pyridin-4-yl)prop-1-enyl)-2,3,4,5-tetrahydro-1H-pyrido[4,3-b]indole] | 8 | 68
CNC(=O)c1ccc(/C(F)=C(/c2ccc(C(=O)NC)c(F)c2)n2c3c(c4cc(C)ccc42)CN(C)CC3)cc1F [compound 423, (E)-4,4′-(1-(2,8-dimethyl-3,4-dihydro-1H-pyrido[4,3-b]indol-5(2H)-yl)-2-fluoroethene-1,2-diyl)bis(2-fluoro-N-methylbenzamide)] | 31 | -10
CNC(=O)c1ccc(/C(F)=C/n2c3c(c4cc(C)ccc42)CN(C)CC3)cc1F [compound 424, (Z)-4-(2-(2,8-dimethyl-3,4-dihydro-1H-pyrido[4,3-b]indol-5(2H)-yl)-1-fluorovinyl)-2-fluoro-N-methylbenzamide] | 43 | 20
Cc1ccc2c(c1)c1c(n2/C(=C(/F)c2ccncc2)c2ccncc2)CCN(C)C1 [compound 425, (E)-5-(2-fluoro-1,2-di(pyridin-4-yl)vinyl)-2,8-dimethyl-2,3,4,5-tetrahydro-1H-pyrido[4,3-b]indole] | 4 | 6
Cc1ccc2c(c1)c1c(n2/C=C(\F)c2ccncc2)CCN(C)C1 [compound 426, (Z)-5-(2-fluoro-2-(pyridin-4-yl)vinyl)-2,8-dimethyl-2,3,4,5-tetrahydro-1H-pyrido[4,3-b]indole] | 50 | 32
CC(=O)CN1CCc2c(c3cc(C)ccc3n2/C=C(\C)c2ccncc2)C1 [compound 427, (E)-1-(8-methyl-5-(2-(pyridin-4-yl)prop-1-enyl)-3,4-dihydro-1H-pyrido[4,3-b]indol-2(5H)-yl)propan-2-one] | 1 | 17
